In US20130289019A1, “METHODS OF TREATING BEHAVIORIAL AND/OR MENTAL DISORDERS” (AMAZING GRACE, INC., priority 2012, published 2013):
“Also recorded” adds a separate entry of the source. Marks after values point to notes of the source that are not given here.

Assays:
[1] = test system: glutamatergic NMDA receptor in the NAc; assay: NMDA receptor antagonists injected into the NAc (Rada et al. 2003); assay type: in vivo; conditions: Applicant's data (Rada et al. 2003)
Excerpt: In the NAc, M2/M4 receptors are also located on glutamate-containing axonal terminals that originate from neurons located in corticolimbic and thalamic regions involved in depression and anxiety.

[2] = test system: rats (NAcShell injection); assay: locomotor activity in a photocell cage after drug injection in the NAcShell; assay type: in vivo, rat; conditions: 10 min following injection in NAcShell; arecoline 40 μg, pirenzepine 35 μg, scopolamine 1 μg, gallamine 0.88 μg
Protocol: FIG. 4 is a graph illustrating the effects of cholinergic drugs on locomotor activity in a photocell cage. Activity in the 10 min following drug injection in the NAcShell (black bars) is expressed as a percentage of control injections normalized to 100% (white bars).
FIG. 4 illustrates the effects of cholinergic drugs on locomotor activity in a photocell cage. Activity in the 10 min following drug injection in the NAc (black bars) is expressed as a percentage of control injections normalized to 100% (white bars).

[3] = test system: rats (NAcShell injection); assay: Porsolt swim test after injection of mAChR agonists and antagonists in the NAcShell; assay type: in vivo, rat; conditions: for Drug (sec), mean swimming time / Percent change of swimming time vs Ringer / Time diff (sec), drug vs Ringer: 600 sec swim test; for immobility in the swim test, effect in words: infusion into the NAcShell
Protocol: FIG. 3 is a graph illustrating swimming time following injections of cholinergic drugs in NAc (black bars), compared to Ringer (white bars). (A) Local injection of arecoline, a muscarinic agonist, decreased swim time; the animals quickly gave up (40 μg, −41%, n=8, t=3.53, p<0.01; and 80 μg, −66%, n=6, t=4.12, p<0.01). (B) Pirenzepine, an M1 antagonist, increased swimming escape attempts in the manner of an antidepressant, but note this is a local injection (17.5 μg, n=8, +39%, t=3.63, p<0.01; 35 μg, +40%, n=9, t=7.15, p<0.001). […] (D) Local gallamine, an M2 antagonist, decreased swim time (0.13 μg/side, −21%, n=7, t=3.72, p<0.01; 0.44 μg/side, −37%, n=8, t=2.95, p<0.05; 0.88 μg/side, −36%, n=7, t=4.64, p<0.01). Swimming time following Ringer is normalized to 100%, with each bar representing the mean of the normalized responses across subjects. Swimming time following a drug injection is expressed as a percentage of the swimming time following vehicle injection on a different day. Significant changes in the within-subject response to drug injections are indicated with asterisks (* p<0.05, ** p<0.01, *** p<0.001).
The Porsolt swim test is an animal model of depression widely used as a screen for drugs with potential antidepressant effects in humans and for elucidating the pharmacological mechanisms of action of antidepressant medications. For example, the following procedure may be used:
On the first day of this test (day 1), a rodent (typically a rat) is placed in a cylindrical water tank for 15 min. Then after 24 hours (day 2) and 48 hours (day 3), drug and Ringer are administered to the animal in counterbalanced order. Immediately following each injection, the animal is placed in the swim test for 10 min. The length of time it swims during the swim tests is recorded. “Swimming” is defined by escape behaviors (i.e. diving, rigorous paddling with all four legs, circling the tank, and clambering at the tank walls). ‘Immobility’ was scored as floating and treading water just enough to keep the nose above water. Typically, after the first swimming session, animals become behaviorally depressed as shown by swimming less on later test days (day 2 or 3). […] Antidepressants increase swimming without affecting locomotor activity, whereas non-antidepressant drugs such as certain psychostimulants may also decrease immobility, but also increase locomotor activity in the open field test. Therefore, to screen a potential antidepressant, the swim test is typically followed by test for hyperactivity in the open field.
Rats were placed in the 600 sec (10 min) swim test following injections of drugs in the NAcShell. When not swimming, rats floated or made minimal forepaw movements to keep their noses above water. Each rat received one drug counterbalanced with Ringer on a separate day. The shorter control swim times for the gallamine group, relative to groups that received other drugs, may have been due to a seasonal difference. Control injections, shown in the last line, were made 2 mm dorsal to the accumbens (Pirenzepine Ctrl). Asterisks indicate significant difference between drug and Ringer (* p<0.05; ** p<0.01; *** p<0.001).

[4] = test system: NAcShell of rats (ICSS reward threshold); assay: discrete trial current-threshold intracranial self-stimulation (ICSS), drugs infused into NAcShell; assay type: in vivo, rat; conditions: for ICSS threshold change: vs baseline, N=2; for ICSS threshold, effect in words: infused into the NAcShell during the ICSS procedure
Excerpt: FIG. 2 is a graph illustrating the effect of antagonism of M1 mAChR and agonism of mAChR in the nucleus accumbens shell (NAcShell). The discrete trial current-threshold intracranial self-stimulation paradigm was used to assess the effect of cholinergic drugs infused directly into the NAcShell on reward, independent of performance. See below and Markou and Koob (Neuropsychopharmacology. 1991 January; 4(1):17-26) for detailed description of the paradigm. Thresholds measured in a rat vary little in the 4 pre-drug days (<7% of the mean or baseline). The non-selective mAChR agonist arecoline dose-dependently elevates threshold (0.01 M, +11%; 1.0 M, +57.5%, N=2). Pirenzepine dihydrochloride (Sigma-Aldrich, Saint Louis, Mo.), a selective M1 mAChR antagonist, dose-dependently lowers threshold (0.1 mM, −7%; 100 mM, […], N=2). The drugs were infused into the NAcShell at a steady rate by reversed microdialysis over the hour required to complete threshold testing.
Anhedonia may be assessed by applying the intracranial self-stimulation (ICSS) paradigm. The ICSS may be used to assess anhedonia, reward, hedonic capacity, and motivation in animals. In this paradigm, a rat performs an operant task (e.g. pressing a bar) to receive rewarding electrical stimulation through electrodes implanted into specific areas of the brain, including the lateral hypothalamus (LH), medial forebrain bundle (MFB), ventral tegmental area containing dopamine neurons (VTA), the nucleus accumbens shell or nucleus accumbens medial core, ventral pallidum, orbitofronal cortex (OPFC), medial frontal cortex (MPFC), cingulate cortex, lateral bed nucleus of the stria terminalis of the amygdala (BNST), mediodorsal thalamus (mdTham), lateral septum, the dorsal raphe containing serotonin neurons, the locus coeruleus containing norepinephrine neurons (see FIG. 1). As noted above, these regions supporting ICSS form an interconnected network commonly referred to as the “brain reward circuitry.”
A skilled artisan would recognize that variations of the ICSS paradigm may be used. For example, one of the most commonly used ICSS procedures, which has been experimentally validated and has shown to be reward-selective, is the discrete-trial current-intensity threshold procedure. This procedure directly and reliably assesses an animal's sensitivity to rewards, hedonic capacity, and motivation, independent of performance, i.e., ability to move (for detailed procedures see Markou and Koob, Neuropsychopharmacology. 1991 January; 4(1):17-26). The discrete trial current-intensity threshold ICSS procedure provides unique ways to investigate the anatomical and neurochemical basis of reward and motivation and is an important tool for assessing of the reward-facilitating or anhedonic effects of various drugs or medications.
Lowering of ICSS thresholds indicates facilitation of brain stimulation reward, whereas elevation in ICSS threshold indicates diminished reward value of the stimulation and thus an anhedonic state. Acute administration of most drugs of abuse, including cocaine, amphetamine, nicotine, morphine, and heroin, lower ICSS thresholds in experimental animals, logically because of their rewarding values. By contrast, withdrawal from chronic administration of these drugs elevates ICSS thresholds, indicating an anhedonic state that resembles the negative affective and motivational state of the drug withdrawal syndrome experienced by humans. Elevated ICSS threshold also occurs in animal models of depression. Such elevation in ICSS threshold reflects decreased sensitivity to rewarding stimuli, decreased hedonic capacity or motivation, and/or an aversive and dysphoric affective state of the animal model of depression. Importantly, administration of antidepressants normalizes or lowers ICSS threshold in such animals, indicating a reversal of reward and motivational deficits.
FIG. 2 is a graph illustrating the effect of antagonism of M1 mAChR and agonism of mAChR in the NAcShell. […]

[5] = test system: extracellular ACh in NAcShell; assay: ACh efflux in NAcShell, infusion by reverse dialysis in freely moving rats; assay type: in vivo, rat; conditions: for extracellular ACh: 20 min infusion in NAcShell by reverse dialysis, oxotremorine 4 mM (hour following infusion), gallamine 1 mM, scopolamine 10 mM probe concentration; for duration of the ACh increase (until return to baseline): gallamine 1 mM: time following the infusion, scopolamine 10 mM; for ACh level in the NAc, effect in words: inventor's data (Chau et al. 2001)
Protocol: To determine if the M2 drugs act presynaptically on autoreceptors controlling ACh release, freely moving rats received infusions of an M2 agonist or antagonist in the NAcShell for 20 min by reverse dialysis while extracellular ACh was measured.
To determine if the M2 drugs act presynaptically on autoreceptors controlling ACh release, freely moving rats received infusions of an M2 agonist or antagonist in the NAc for 20 min by reverse dialysis while extracellular ACh was measured.

[6] = test system: patients with major depression and bipolar disorder; conditions: cited from earlier work
[7] = test system: NMDA receptor (depressed humans); conditions: human trials (Zarate et al. 2006); cited from earlier work
[8] = 17.5 μg/side, control injections 2 mm dorsal to the accumbens

NC(CCCP(=O)(O)O)C(=O)O (centres unmarked) [AP-5]
effect on depression, in words [1]: alleviate depression

COC(=O)C1=CCCN(C)C1 [Arecholine]
locomotor activity vs Ringer, in words [2]: significantly decreased
Drug (sec), mean swimming time ([3]; 40.0 μg/side in NAcShell): 235 ± 17** sec
Percent change of swimming time vs Ringer ([3]; 40.0 μg/side in NAcShell): −41%
Time diff (sec), drug vs Ringer ([3]; 40.0 μg/side in NAcShell): -162 s
Percent change of swimming time vs Ringer ([3]; 40.0 μg/side in NAcShell, listed as arecoline): −41%
Drug (sec), mean swimming time ([3]; 80.0 μg/side in NAcShell): 109 ± 34** sec
Percent change of swimming time vs Ringer ([3]; 80.0 μg/side in NAcShell): −66%
Time diff (sec), drug vs Ringer ([3]; 80.0 μg/side in NAcShell): -209 s
Percent change of swimming time vs Ringer ([3]; 80.0 μg/side in NAcShell, listed as arecoline): −66%
ICSS threshold change ([4]; arecoline 0.01 M infused into NAcShell by reversed microdialysis over 1 h): +11%
ICSS threshold change ([4]; arecoline 1.0 M infused into NAcShell by reversed microdialysis over 1 h): +57.5%
ICSS threshold, effect in words [4]: dose-dependently increases ICSS threshold

CC[N+](CC)(CC)CCOc1cccc(OCC[N+](CC)(CC)CC)c1OCC[N+](CC)(CC)CC [Gallamine]
locomotor activity vs Ringer, in words [2]: not significantly different from Ringer
Drug (sec), mean swimming time ([3]; 0.13 μg/side in NAcShell): 155 ± 26** sec
Percent change of swimming time vs Ringer ([3]; 0.13 μg/side in NAcShell): −21%
Time diff (sec), drug vs Ringer ([3]; 0.13 μg/side in NAcShell): -41 s
Percent change of swimming time vs Ringer ([3]; 0.13 μg/side in NAcShell, listed as gallamine): −21%
Drug (sec), mean swimming time ([3]; 0.44 μg/side in NAcShell): 148 ± 24* sec
Percent change of swimming time vs Ringer ([3]; 0.44 μg/side in NAcShell): −37%
Time diff (sec), drug vs Ringer ([3]; 0.44 μg/side in NAcShell): -88 s
Percent change of swimming time vs Ringer ([3]; 0.44 μg/side in NAcShell, listed as gallamine): −37%
extracellular ACh [5]: 437 % of baseline
duration of the ACh increase (until return to baseline) [5]: 20 min

CN1CCN(CC(=O)N2c3ccccc3C(=O)Nc3cccnc32)CC1 [Pirenzepine]
locomotor activity vs Ringer, in words [2]: not significantly different from Ringer; also recorded: without altering activity in the open field
Drug (sec), mean swimming time ([3]; 17.5 μg/side in NAcShell): 480 ± 38** sec
Time diff (sec), drug vs Ringer ([3]; 17.5 μg/side in NAcShell): +134 sec
Drug (sec), mean swimming time [3, 8]: 301 ± 34 s
Percent change of swimming time vs Ringer [3, 8]: −10%
Time diff (sec), drug vs Ringer [3, 8]: -36 s
Drug (sec), mean swimming time ([3]; 35.0 μg/side in NAcShell): 412 ± 26*** sec
Time diff (sec), drug vs Ringer ([3]; 35.0 μg/side in NAcShell): +117 sec
immobility in the swim test, effect in words [3]: decreases immobility
ICSS threshold, effect in words [4]: dose-dependently lowers ICSS threshold
ICSS threshold change ([4]; pirenzepine 0.1 mM infused into NAcShell by reversed microdialysis over 1 h): −7%
ICSS threshold change ([4]; pirenzepine 100 mM infused into NAcShell by reversed microdialysis over 1 h): 14%

CN1[C@@H]2C[C@@H](OC(=O)[C@H](CO)c3ccccc3)C[C@H]1[C@@H]1O[C@@H]12 [Scopolamine]
locomotor activity vs Ringer, in words [2]: not significantly different from Ringer; also recorded: without altering activity in the open field
rate of remission in female patients ([6]; human trials): ≤ 71%
duration of antidepressant/anti-anxiety effects ([6]; one single dose): more than 17 days
time to reduction of depression and anxiety ([6]; one single dose, patients with major depression and bipolar disorder): 3 to 5 days
Drug (sec), mean swimming time ([3]; 0.5 μg/side in NAcShell): 306 ± 44 s
Percent change of swimming time vs Ringer ([3]; 0.5 μg/side in NAcShell): −12%
Time diff (sec), drug vs Ringer ([3]; 0.5 μg/side in NAcShell): -44 s
Percent change of swimming time vs Ringer ([3]; 0.5 μg/side in NAcShell, listed as scopolamine): N.S.
Drug (sec), mean swimming time ([3]; 1.0 μg/side in NAcShell): 541 ± 13*** sec
Percent change of swimming time vs Ringer ([3]; 1.0 μg/side in NAcShell): +50%
Time diff (sec), drug vs Ringer ([3]; 1.0 μg/side in NAcShell): +181 sec
Percent change of swimming time vs Ringer ([3]; 1.0 μg/side in NAcShell, listed as scopolamine): +50%
immobility in the swim test, effect in words [3]: decreases immobility
extracellular ACh [5]: 220 % of baseline
duration of the ACh increase (until return to baseline) [5]: more than 100 min
ACh level in the NAc, effect in words [5]: elevates ACh level in the NAc

C[C@]12N[C@H](Cc3ccccc31)c1ccccc12 [dizocilpine]
effect on depression, in words [1]: alleviate depression

CNC1(c2ccccc2Cl)CCCCC1=O (centres unmarked) [ketamine]
antidepressant effect, in words [7]: rapid antidepressant effect

O=C1CCCN1CC#CCN1CCCC1 [oxotremorine]
extracellular ACh [5]: 55 % of baseline
ACh level in the NAc, effect in words [5]: decreasing ACh
